Results published in US5482930A, “Anti-inflammatory composition and method with des-Tyr dynorphin and analogues” (The Regents of the University of California, priority 1993, dated 1996).
Structures can show the parent of a compound that is named as a salt. Residues, ends and D or L forms follow the SMILES beside them.

Legend:
[1] = Blood pressure and oxygenation after i.v. dose; format: in vivo, rat; settings: 0.2 mg/kg i.v.
[2] = test system: thermal edema of the hind paw; assay: Heat-induced swelling and edema of the rat hind paw (58° C. water, one minute); format: in vivo; settings: for ED50, reducing thermal edema: i.v., anesthetized rat, hind paw 58° C. water one minute; for anti-inflammatory effect (FIG. 1): FIG. 1 legend
Description: In one bioassay, dynorphin A (2-17), synthesized by standard solid phase methods, was dissolved in sterile saline and injected intravenously via a branch of the femoral vein at various doses into an anesthetized rat. Ten minutes later a hind paw was immersed in 58° C. water for one minute. Thirty minutes after exposure to heat, the paw was removed at the ankle joint and weighed. The percent increase in weight of the heated paw relative to the unheated paw was taken as the index of inflammatory thermal edema. The general principles of this method have been discussed by Wei and Thomas, Ann. Rev. of Pharmacol. and Toxicol., 33, pp. 91-108 (1993).
Anesthetized rats were injected intravenously (i.v.) with saline (1 ml/kg) or naloxone hydrochloride ([…]) 5 minutes prior to i.v. injection with saline ([…]), dynorphin A (2-17) (0.5 mg/kg), or N-acetyldynorphin A (6-12 )-amide (3 mg/kg). Ten minutes after the second injection, the rat's hind paw was immersed in 58° C. water for one minute and 30 minutes later the animals were euthanized and the heated and unheated paw weights were measured. After saline/saline or naloxone HCl/saline, the percent increase in the weight of the heated paw, relative to the unheated paw, were 104±10% and 98±9%, respectively. The percent increases for the saline/dynorphin A (2-17) and naloxone HCl/dynorphin A (2-17) groups were 26±6% and 26±5%, respectively. The percent increases for the saline/N-acetyl-dynorphin A (6-12) amide and naloxone HCl/N-acetyl-dynorphin A (6-12) amide groups were 21±3% and 27±12%, respectively.

[3] = Direct comparison of dynorphin A analogs with an amide or a carboxyl C-terminus (ED50, bioassay not given); format: in vivo; settings: i.v.; amide versus carboxyl C-terminus
Description: Similar results were obtained for D-Ala^2 -dynorphin A (1-17) amide, with an ED50 value of 0.5 mg/kg i.v. versus a value of 1.0 mg/kg i.v. for D-Ala^2 -dynorphin A (1-17).

[4] = test system: neurogenic inflammation; settings: intravenous route; relative to saline-injected controls; cited from earlier work
[5] = test system: edema in the anesthetized rat's paw after thermal injury; settings: 3.75 mg/kg administered intravenously; cited from earlier work

Compound: CC[C@H](C)[C@H](NC(=O)[C@H](CCCNC(=N)N)NC(=O)[C@H](CCCNC(=N)N)NC(=O)[C@H](CC(C)C)NC(=O)[C@H](Cc1ccccc1)NC(=O)CNC(=O)CN)C(=O)N[C@@H](CCCNC(=N)N)C(=O)N1CCC[C@H]1C(=O)N[C@@H](CCCCN)C(=O)N[C@@H](CC(C)C)C(=O)N[C@@H](CCCCN)C(=O)N[C@@H](Cc1c[nH]c2ccccc12)C(=O)N[C@@H](CC(=O)O)C(=O)N[C@@H](CC(N)=O)C(=O)N[C@@H](CCC(N)=O)C(=O)O [Embodiment NO:1, G-G-F-L-R-R-I-R-P-K-L-K-W-D-N-Q]
- cyanosis / oxygenation [1]: no evidence of cyanosis
- effect on blood pressure [1]: slight fall in blood pressure
- duration of fall in blood pressure ([1]; then mean arterial pressure returned to baseline): 10 to 15 min

Compound: CC[C@H](C)[C@H](NC(=O)[C@H](CCCNC(=N)N)NC(=O)[C@H](CCCNC(=N)N)NC(C)=O)C(=O)N[C@@H](CCCNC(=N)N)C(=O)N1CCC[C@H]1C(=O)N[C@@H](CCCCN)C(=O)N[C@H](CC(C)C)C(N)=O [Embodiment NO:4, Ac-R-R-I-R-P-K-l-NH2] (HELM PEPTIDE1{[ac].R.R.I.R.P.K.[dL].[am]}$$$$V2.0)
- ED50, reducing thermal edema [2]: 2.2 (1.2-4.1) mg/kg

Compound: C=CCN1CC[C@]23c4c5ccc(O)c4O[C@H]2C(=O)CC[C@@]3(O)[C@H]1C5 [naloxone HCl, naloxone hydrochloride]
- percent increase in the weight of the heated paw, relative to the unheated paw ([2]; naloxone HCl (4 ml/kg) i.v. then saline, no peptide): 98±9%

Compound: Ac-RRIRPKL-NH2 [Embodiment NO:3, Ac-R-R-I-R-P-K-L-NH2]
- ED50, reducing thermal edema [2]: 1.4 (0.6-3.7) mg/kg
- percent increase in the weight of the heated paw, relative to the unheated paw ([2]; naloxone HCl pretreatment, then peptide 3 mg/kg i.v.): 27±12%
- antagonism of anti-inflammatory effect by naloxone ([2]; peptide 3 mg/kg i.v., naloxone 4 mg/kg i.v.): not antagonized
- percent increase in the weight of the heated paw, relative to the unheated paw ([2]; saline pretreatment, then peptide 3 mg/kg i.v.): 21±3%

Compound: D-Ala^2 -dynorphin A (1-17)
- ED50 [3]: 1.0 mg/kg

Compound: D-Ala^2 -dynorphin A (1-17) amide
- ED50 [3]: 0.5 mg/kg

Compound: D-Ala^2 -dynorphin A (2-17)
- ED50 [3]: 1.2 mg/kg

Compound: D-Ala^2 -dynorphin A (2-17) amide
- ED50 [3]: 0.65 mg/kg

Compound: dynorphin A (1-10) amide
- median effective dose (ED50) producing 50% inhibition of dye leakage [4]: 5.0 (3.5-7.2) mg/kg

Compound: dynorphin A (1-13)
- prevention of edema after thermal injury [5]: prevent edema
- median effective dose (ED50) producing 50% inhibition of dye leakage [4]: 1.9 (1.5-2.4) mg/kg
- anti-inflammatory effect (FIG. 1) [2]: substantially lacking potency
- ED50, reducing thermal edema [2]: 3.2 (1.9-5.5) mg/kg

Compound: dynorphin A (1-17)
- anti-inflammatory effect (FIG. 1) [2]: substantially lacking potency
- ED50, reducing thermal edema [2]: 1.7 (1.2-2.4) mg/kg
